In patent US20150183791A1, “IMIDAZO[1,2-b]PYRIDAZINE-BASED COMPOUNDS, COMPOSITIONS COMPRISING THEM, AND METHODS OF THEIR USE” (LEXICON PHARMACEUTICALS, INC., priority 2013, published 2015):

Legend:
[1] = target: AAK1 (full-length human protein) (Homo sapiens, UniProt Q2M2I8); assay: P81 filter plate assay; type: biochemical
Procedure: Compounds were serially diluted into a Labcyte LDV plate (Labcyte, cat# LP-0200) using a Mutiprobe (PerkinElmer) and Biomek FX (Beckman Coulter) so that the highest compound concentration was at 96 μM. Compounds were then pinged (75 nL per well) into a Greiner 384-well reaction plate (Greiner, #781076) using an ECHO 550 Liquid Handler (Labcyte). A total of 12 μl reaction buffer (IMAP buffer containing Tween and DTT, from Molecular Devices) was then added to each well of columns 1 and 13 for the negative controls and 12 μl of 2×AAK1 (0.2 nM full-length human protein, NCBI accession no. NP_055726.2) was added to the remaining wells. Enzyme was then pre-incubated with compound for 10 minutes at room temperature. Reactions were initiated upon Minitrak (PerkinElmer) addition of 12 μl substrate mix containing 2× Mu2 (0.2 μM, full length human protein), 2× cold ATP (2 μM), and 1.3 μCi of hot ^33P-ATP. Reactions proceeded for one hour at room temperature. Meanwhile, Millipore 384-well P81 filter plates (Millipore, catalog # MZPHN0 W10) were placed on a plate washer (Zoom ZW, from Titertek) and pre-wet with 50 μl 1% phosphoric acid. Kinase reactions were then stopped upon addition of 24 μl of 2% phosphoric acid to each well and the Minitrak was then used to transfer 40 μl from each well into the pre-wet Millipore 384-well P81 filter plates. Reaction mixtures were incubated for 10 minutes at room temperature in the P81 plates, followed by washing five times with 100 μl/well of 1% phosphoric acid using the Zoom filter washer. The bottom of each filter plate was sealed followed by addition of 20 μl Microscint 40 to each well, sealing the top of the plates with Flashplate cover, and then waiting one hour until reading on the TopCount (Perkin Elmer).

[2] = target: T1, AAK1 (full length human) transfected with Flag/AP2MI in HEK293F cells; phospho-mu2 (Homo sapiens, UniProt Q2M2I8); assay: HEK281 cell-based assay; details: HEK293F cells transfected with human AAK1 and AP2M1, 3 hours with compound, phospho-mu2 Western blot normalized to total Mu2
T1 construct: HA; expressed in transfected cells; host or cells: HEK293F
Procedure: HEK293F cells were cultured in media containing DMEM (Gibco, cat. #11965), 10% FBS (SAFC Biosciences, cat. #12103C), 1×GPS (glutamine, penicillin and streptomycin). On day one, cells were plated on a 10 cm dish so that they are ˜80% confluent at time of transfection. Roughly 12 million cells were in a 10 cm dish at time of transfection. On day two, each dish was transfected with 48 ug DNA and 144 ul Lipofectamine 2000 (Invitrogen, cat.#11668-019). The DNA was comprised of a mixture (per 10 cm dish) containing 3 ug AAK1/HA/pIRES (full length human, NCBI accession no. NP_055726.2), 45 μg Flag/AP2MI/pcDNA (full length human), and 1.5 ml OPTI-MEM. The Lipofectamine 2000 is made up of a mixture (per 10 cm dish) containing 144 μl Lipofectamine 2000 and 1.5 ml OPTI-MEM. Each mixture was transferred to individual 15 ml tubes and incubated at room temperature for 5 minutes, and then the two mixes were combined and incubated at room temperature for 20 minutes. Growth media was then aspirated from each 10 cm plate and replaced with 10 ml of DMEM+10% FBS (no GPS). Finally, 3 ml DNA/Lipofectamine mix was added to each 10 cm dish and mix gently followed by incubate of plate overnight at 37° C. and 5% CO2.
On day three, compounds were diluted in 100% DMSO at 1000× final concentration, followed by 3-fold serial dilutions for a total of 5 concentrations tested. Four compounds were tested per 10 cm dish. One ul of each compound dilution was then pipetted into a deep-well, 96-well plate, followed by addition of 500 μl DMEM+0.5% FBS into each well for a 2× final concentration of each compound. Cells were resuspended in a 10 cm dish by simple pipetting (HEK293 cells come off the plate that easy at this point) and then transferred to a 50 ml conical tube and pelleted by centrifugation at 1000 rpm for 5 min. Cell pellets were then resuspended in 2.75 ml DMEM+0.5% FBS per 10 cm dish and 100 μl of cell suspension transferred into each well of 96-well TC plate. Finally, 100 μl of 2× compound diluted in DMEM+0.5% FBS was then added into wells containing cell suspension for a 1× final concentration. Plates were then incubated at 37° C. and 5% CO2 for 3 hours followed by transferring of cell suspensions from each well into 12-tube PCR strips. The PCR strips were spun in a tip rack at 1000 rpm for 5 minutes to pellet cells and media was then removed by pipetting without disturbing the cell pellet.
To prepare for Western Blot analysis, cell pellets were resuspend in 40 ul 1×LDS-PAGE sample buffer (Invitrogen, cat.# NP0008) +2× Halt phophatase and protease inhibitor cocktail (Thermo Scientific, cat.#1861284), followed by sonicating each with microtip sonicator set at 5 for 8-10 seconds. Five ul of 10× NuPage Sample Reducing Agent (with […]) was to each sample followed by heat denaturing at 70 C for 10 min on PCR machine. A total of 10 μl per sample was loaded into each lane of a 4-20% Tris-Glycine Criterion 26-well gel (Biorad, cat.#345-0034) for the phospho-mu2 blot and 10 μl per lane in a 4-12% Bis-Tris (+MES buffer) NuPAGE 26-well gel (Invitrogen, cat.# WG1403BX10) for the mu2 blot. For controls, 2 ng of phospho-mu2 or 20 ng mu2/Flag proteins were loaded in the last well of each gel. After SDS-PAGE, samples on each gel were transferred to PVDF membrane using an iBlot and membranes were blocked for one hour in TBST+5% milk, followed by wash 3× for 5-10 min with TBST. Criterion gels were probed with rabbit anti-phospho-mu2 (1:5000; a rabbit polyclonal antibody produced by New England Peptide and affinity purified at Lexicon) in TBST+5% BSA, whereas, NuPAGE gels were probed with mouse anti-Flag (1:500; Sigma, cat.# F1804) in TBST+5% milk, and these primary antibodies were incubated overnight at 4° C. on a rocker. […]

[3] = 0.2 nM-scale full-length human AAK1, Mu2 substrate, 33P-ATP, one hour at room temperature, class symbols

AAK1 (full-length human protein), sequence (Q2M2I8 1-863 isoform Q2M2I8-2): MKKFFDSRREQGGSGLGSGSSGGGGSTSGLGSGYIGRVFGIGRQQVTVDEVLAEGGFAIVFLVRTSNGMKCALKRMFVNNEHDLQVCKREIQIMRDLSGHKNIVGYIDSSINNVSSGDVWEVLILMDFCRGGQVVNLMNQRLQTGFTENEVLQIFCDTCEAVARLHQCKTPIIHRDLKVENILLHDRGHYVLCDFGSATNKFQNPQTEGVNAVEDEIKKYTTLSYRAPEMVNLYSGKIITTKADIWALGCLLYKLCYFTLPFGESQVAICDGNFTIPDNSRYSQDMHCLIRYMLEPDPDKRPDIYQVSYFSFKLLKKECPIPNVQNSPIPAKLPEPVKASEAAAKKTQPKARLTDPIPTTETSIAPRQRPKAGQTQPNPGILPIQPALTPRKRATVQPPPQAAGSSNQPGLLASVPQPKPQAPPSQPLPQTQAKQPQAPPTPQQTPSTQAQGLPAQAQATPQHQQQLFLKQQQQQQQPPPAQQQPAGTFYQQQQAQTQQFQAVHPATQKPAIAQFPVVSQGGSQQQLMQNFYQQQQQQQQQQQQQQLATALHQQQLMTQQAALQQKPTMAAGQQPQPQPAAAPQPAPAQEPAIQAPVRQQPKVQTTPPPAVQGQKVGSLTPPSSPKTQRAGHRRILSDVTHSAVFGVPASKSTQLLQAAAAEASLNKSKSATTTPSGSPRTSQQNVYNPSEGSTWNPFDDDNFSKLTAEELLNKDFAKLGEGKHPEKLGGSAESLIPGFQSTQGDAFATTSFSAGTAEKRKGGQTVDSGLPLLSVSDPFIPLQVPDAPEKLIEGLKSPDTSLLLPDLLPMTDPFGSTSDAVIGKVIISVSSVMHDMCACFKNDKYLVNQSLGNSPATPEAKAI
T1 sequence (Q2M2I8 1-863 isoform Q2M2I8-2): as above

Structure (SMILES) | IC50 [1, 3] | IC50 ([1]; same assay, given as numeric bound instead of class symbol) | CBA IC50 [2]
COc1cnccc1-c1cnc2ccc(-c3cccc(C(=O)NCC(C)C)c3)nn12 [N-isobutyl-3-(3-(3-methoxypyridin-4-yl)imidazo[1,2-b]pyridazin-6-yl)benzamide] | ≤ 10 nM | – | * (“*” means less than or equal to 1.0 μM)
CC(=O)c1cccc(-c2ccc3ncc(-c4ccc(C(N)=O)cc4)n3n2)c1 [4-(6-(3-Acetylphenyl)imidazo[1,2-b]pyridazin-3-yl)benzamide] | – | – | * (“*” means less than or equal to 1.0 μM)
CC(C)CNC(=O)c1cccc(-c2ccc3ncc(-c4ccncc4)n3n2)c1 [N-isobutyl-3-(3-(pyridin-4-yl)imidazo[1,2-b]pyridazin-6-yl)benzamide] | – | > 300 nM | * (“*” means less than or equal to 1.0 μM)
CC(=O)c1ccc(-c2cnc3ccc(-c4ccc(C#N)cc4)nn23)s1 [4-[3-(5-Acetyl-thiophen-2-yl)-imidazo[1,2-b]pyridazin-6-yl]-benzonitrile] | – | – | * (“*” means less than or equal to 1.0 μM)
CCCCCc1ccc2ncc(-c3ccc(C(C)=O)s3)n2n1 [1-(5-(6-Pentylimidazo[1,2-b]pyridazin-3-yl)thiophen-2-yl)ethanone] | – | – | * (“*” means less than or equal to 1.0 μM)
CC(=O)c1cccc(-c2ccc3ncc(Br)n3n2)c1 [1-(3-(3-Bromoimidazo[1,2-b]pyridazin-6-yl)phenyl)ethanone] | – | – | * (“*” means less than or equal to 1.0 μM)

Further lines, with some results ahead:

IC50 [1, 3] | IC50 ([1]; same assay, given as numeric bound instead of class symbol) | Structure (SMILES) | CBA IC50 [2]
≤ 10 nM | – | CC(C)CNC(=O)c1cncc(-c2ccc3ncc(-c4ccc(CN)cc4)n3n2)c1 [5-(3-(4-(Aminomethyl)phenyl)imidazo[1,2-b]pyridazin-6-yl)-N-isobutylnicotinamide] | ** (“**” means a value of less than or equal to 0.1 μM)
≤ 10 nM | – | CC(C)CNC(=O)c1cccc(-c2ccc3ncc(-c4ccc(CN)cc4)n3n2)c1 [3-(3-(4-(Aminomethyl)phenyl)imidazo[1,2-b]pyridazin-6-yl)-N-isobutylbenzamide] | ** (“**” means a value of less than or equal to 0.1 μM)
≤ 10 nM | – | CC(=O)c1cccc(-c2ccc3ncc(-c4ccc(CN)cc4)n3n2)c1 [1-(3-(3-(4-(Aminomethyl)phenyl)imidazo[1,2-b]pyridazin-6-yl)phenyl)ethanone] | ** (“**” means a value of less than or equal to 0.1 μM)
≤ 10 nM | – | CNC(=O)c1ccc(-c2cnc3ccc(-c4cccc(C(=O)NCC(C)C)c4)nn23)cc1 [N-isobutyl-3-(3-(4-(methylcarbamoyl)phenyl)imidazo[1,2-b]pyridazin-6-yl)benzamide] | * (“*” means less than or equal to 1.0 μM)
≤ 10 nM | – | CC(C)CCC(=O)c1cccc(-c2ccc3ncc(-c4ccc(CN)cc4)n3n2)c1 [1-(3-(3-(4-(Aminomethyl)phenyl)imidazo[1,2-b]pyridazin-6-yl)phenyl)-4-methylpentan-1-one] | ** (“**” means a value of less than or equal to 0.1 μM)
